Assay results from patent US20190336494A1, “[…] COMPOUNDS FOR TREATING AGITATION” (Concert Pharmaceuticals, Inc., priority 2015, published 2019).

Experiments:
[1] = Metabolic stability of test compounds using human liver microsomes; assay type: in vitro ADME; details: for half-life at 1 µM: human, pH 7.4, 1.0 mg/mL HLM, 1 μM test compound, 2 mM NADPH, 37° C., 0-30 minutes, read-out: Ave. t1/2 (n = 2), calculated half-life in human liver microsomes; for Change over non-deuterated compound (t1/2): vs Dimemorfan
Experimental: Example 4. Determination of Metabolic Stability of Test Compounds using Human Liver Microsomes. Human liver microsomes (20 mg/mL) were obtained from Xenotech, LLC (Lenexa, Kans.). β-nicotinamide adenine dinucleotide phosphate, reduced form (NADPH), magnesium chloride (MgCl2), and dimethyl sulfoxide (DMSO) were purchased from Sigma-Aldrich.
7.5 mM stock solutions of test compounds were prepared in DMSO. The 7.5 mM stock solutions were diluted to 50 μM in acetonitrile (ACN). The 20 mg/mL human liver microsomes were diluted to 1.25 mg/mL (1 mg/mL final) in 0.1 M potassium phosphate buffer, pH 7.4, containing 3 mM MgCl2. The diluted microsomes (375 μL) were added to wells of a 96-well polypropylene plate in triplicate. 10 μL of the 50 μM test compound was added to the microsomes and the mixture was pre-warmed for 10 minutes. Reactions were initiated by addition of 125 μL of pre-warmed NADPH solution. The final reaction volume was 0.5 mL and contained 1.0 mg/mL human liver microsomes, 1 μM test compound, and 2 mM NADPH in 0.1 M potassium phosphate buffer, pH 7.4, and 3 mM MgCl2. The reaction mixtures were incubated at 37° C., and 50 μL aliquots were removed at 0, 5, 10, 20, and 30 minutes and added to shallow 96-well plates which contained 50 μL of ice-cold ACN with internal standard to stop the reactions. The plates were stored at 4° C. for 20 minutes after which 100 μL of water was added to the wells of the plate before centrifugation to pellet precipitated proteins. Supernatants were transferred to another 96-well plate and analyzed for amounts of parent remaining by LC-MS/MS using an Applied Bio-systems API 4000 mass spectrometer.
7-ethoxy coumarin was used as a positive control.
The in vitro t1/2s for test compounds were calculated from the slopes of the linear regression of % parent remaining (In) vs incubation time relationship:
in vitro t 1/2=0.693/k, where k=-[slope of linear regression of % parent remaining(In) vs incubation time]
(§1) Data analysis was performed using Microsoft Excel Software.

[2] = Effect of quinidine on metabolic stability in extensive metabolizer human liver microsomes; assay type: in vitro ADME; details: EM HLM
Experimental: Materials: Individual donor with extensive metabolizer human liver microsomes (EM HLM, 20 mg/mL) with CYP2D6 activity of 957±19 pmol/mg protein/min, genotyped for CYP2D6 allelic variant-CYP2D6*1/*2x2, were obtained from Xenotech, LLC (Lenexa, Kans.). β-nicotinamide adenine dinucleotide phosphate, reduced form (NADPH), magnesium chloride (MgCl2), dimethyl sulfoxide (DMSO), acetonitrile (ACN), quinidine, and dextromethorphan (DM) were purchased from Sigma-Aldrich. Dimemorfan and d6-dimemorfan (Compound 100) were synthesized by Adesis, Inc.
Determination of Metabolic Stability: 1.0 mg/mL stock solutions of test compounds dextromethorphan, dimemorfan, and d6-dimemorfan (Compound 100) were prepared in DMSO. The 1.0 mg/mL stock solutions were diluted to 10,000 ng/mL in acetonitrile (ACN). A 10 mM stock solution of quinidine was prepared in acetonitrile, which was then diluted further in acetonitrile to produce 20 μM, 10 μM, 5 μM, 2.5 μM, and 1.25 μM solutions of quinidine. The human liver microsomes were diluted to 1.25 mg/mL in 0.1 M potassium phosphate buffer, pH 7.4, containing 3 mM MgC12. The diluted microsomes were added to wells of a 96-well deep-well polypropylene plate in triplicate. A 5 μL aliquot of each 10,000 ng/mL test compound was added to the microsomes, and the mixture was pre-warmed at 37° C. for 7 minutes, then a 5 μL aliquot of each quinidine solution was added (except in control wells where no quinidine was added). Reactions were initiated by addition of pre-warmed NADPH solution to the mixture. The final reaction volume was 0.5 mL and contained 1.0 mg/mL human liver microsomes, 100 ng/mL of test compound, 0.2, 0.1, 0.05, 0.025, 0.0125, or 0 μM of quinidine, and 2 mM NADPH in 0.1 M potassium phosphate buffer, pH 7.4, and 3 mM MgCl2. The reaction mixtures were incubated at 37° C., and 50 μL aliquots were removed at 0, 15, 30, and 60 minutes and added to shallow-well 96-well plates which contained 50 μL of ice-cold ACN with internal standard to stop the reactions. The plates were stored at 4° C. for 20 minutes after which 100 μL of water was added to the wells of the plate before centrifugation to pellet precipitated proteins. Supernatants were transferred to another 96-well plate and analyzed for amounts of parent remaining by LC-MS/MS using an Applied Bio-systems mass spectrometer. Amount of parent remaining was quantified via standard curve.
The in vitro t1/2's for test compounds were calculated from the slopes of the linear regression of % parent remaining (In) vs. incubation time relationship. • in vitro t1/2=0.693/k • k=-[slope of linear regression of % parent remaining(In) vs incubation time]
The apparent intrinsic clearance was calculated using the following equation:
CLint (mL/min/kg)=(0.693/in vitro t1/2) (Incubation Volume/mg of microsomes)
(45 mg microsomes/gram of liver) (20 gm of liver/kg b.w.)
as §1

## [2H]C([2H])([2H])c1ccc2c(c1)[C@]13CCCC[C@@H]1[C@H](C2)N(C([2H])([2H])[2H])CC3 [Compound 100, (+)-3-(Methyl-d3)-17-(methyl-d3)-(9α, 13α, 14α)-morphinan]
[1]
  half-life at 1 µM: 31.6 min
  Change over non-deuterated compound (t1/2): 37%
[2]; Quinidine 0 μM
  % Δ (D6-Dimemorfan/Dimemorfan), deuterium effect on half-life: 35%
  Ratio (D6-Dimemorfan/Dimemorfan) of Clint, app: 0.74
[2]; Quinidine 0.0125 μM
  % Δ (D6-Dimemorfan/Dimemorfan), deuterium effect on half-life: 59%
  Ratio (D6-Dimemorfan/Dimemorfan) of Clint, app: 0.61
[2]; Quinidine 0.025 μM
  % Δ (D6-Dimemorfan/Dimemorfan), deuterium effect on half-life: 3%
  Ratio (D6-Dimemorfan/Dimemorfan) of Clint, app: 0.96
[2]; Quinidine 0.05 μM
  % Δ (D6-Dimemorfan/Dimemorfan), deuterium effect on half-life: 11%
  Ratio (D6-Dimemorfan/Dimemorfan) of Clint, app: 0.90
[2]; Quinidine 0.1 μM
  % Δ (D6-Dimemorfan/Dimemorfan), deuterium effect on half-life: 22%
  Ratio (D6-Dimemorfan/Dimemorfan) of Clint, app: 0.82
[2]; Quinidine 0.2 μM
  % Δ (D6-Dimemorfan/Dimemorfan), deuterium effect on half-life: −12%
  Ratio (D6-Dimemorfan/Dimemorfan) of Clint, app: 1.11

## [2H]C([2H])([2H])c1ccc2c(c1)[C@]13CCCC[C@@H]1[C@H](C2)N(C)CC3 [Compound 102, (+)-3-(Methyl-d3)-17-methyl-(9α, 13α, 14α)-morphinan]
[1]
  half-life at 1 µM: 28 min
  Change over non-deuterated compound (t1/2): 21%

## Cc1ccc2c(c1)[C@]13CCCC[C@@H]1[C@H](C2)N(C)CC3 [Dimemorfan, (+)-(9α, 13α, 14α)-3,17-dimethylmorphinan, reference compound]
[1]
  half-life at 1 µM: 23.1 min
